From patent US20250026748A1, “N-(5-SUBSTITUTED-[(1,3,4-THIADIAZOLYL) OR (THIAZOLYL)])(SUBSTITUTED)CARBOXAMIDE COMPOUNDS AND USE THEREOF FOR INHIBITING HUMAN POLYMERASE THETA” (Repare Therapeutics Inc., priority 2021, published 2025) come the findings set out here.

Molecules are shown by their SMILES.

The experiment has as its target PolQ ATPase enzyme (1-894) (Homo sapiens (Human), UniProt O75417). Kind of experiment: Polθ ATPase enzymatic assay (0.5 nM enzyme concentration), ADP-Glo. In kind it is biochemical. As to conditions: average IC50; 0.5 nM PolQ ATPase enzyme (1-894). The essentials: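 Enzyme (0.5 nM) pre-incubated 15 min at rt with 10-point inhibitor series in 50 mM Tris pH 7.5, 10% glycerol, 5 mM DTT, 10 mM MgCl2, 0.1 mg/ml BSA; reaction started with 20 nM fork DNA and 100 μM ATP, run 180 min at rt. ADP-Glo luminescence; IC50 from 4-parameter variable-slope fit.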
(ADP-Glo turns the ADP formed in a reaction into a luminescent signal.)

Chain of PolQ ATPase enzyme (1-894) (O75417 1-894): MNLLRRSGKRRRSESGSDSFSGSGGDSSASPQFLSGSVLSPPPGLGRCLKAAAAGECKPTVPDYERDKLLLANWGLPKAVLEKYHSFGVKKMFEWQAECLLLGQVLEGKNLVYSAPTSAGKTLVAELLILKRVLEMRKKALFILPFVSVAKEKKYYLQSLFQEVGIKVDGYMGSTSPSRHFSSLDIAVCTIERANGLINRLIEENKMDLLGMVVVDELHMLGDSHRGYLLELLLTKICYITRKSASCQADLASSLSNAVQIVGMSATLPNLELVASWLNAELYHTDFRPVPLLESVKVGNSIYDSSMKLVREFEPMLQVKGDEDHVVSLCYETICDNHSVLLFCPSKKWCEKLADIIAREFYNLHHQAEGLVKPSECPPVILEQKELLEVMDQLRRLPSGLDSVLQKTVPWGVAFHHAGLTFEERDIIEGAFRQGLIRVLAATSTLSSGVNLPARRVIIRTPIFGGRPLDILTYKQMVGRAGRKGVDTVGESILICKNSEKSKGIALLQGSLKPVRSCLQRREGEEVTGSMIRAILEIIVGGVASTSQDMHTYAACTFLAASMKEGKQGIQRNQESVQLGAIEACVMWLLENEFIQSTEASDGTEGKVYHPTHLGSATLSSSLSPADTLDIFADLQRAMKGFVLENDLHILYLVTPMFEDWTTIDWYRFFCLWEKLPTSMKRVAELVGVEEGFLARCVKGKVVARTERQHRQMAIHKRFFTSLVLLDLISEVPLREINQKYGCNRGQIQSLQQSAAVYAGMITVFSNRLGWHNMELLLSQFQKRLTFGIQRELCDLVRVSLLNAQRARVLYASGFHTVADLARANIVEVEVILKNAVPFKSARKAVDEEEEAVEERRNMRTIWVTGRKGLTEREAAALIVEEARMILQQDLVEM

By IC50 is commonly meant the point on the concentration scale where inhibition reaches its midpoint. Lower therefore signals greater potency. `COc1cnc(C(F)F)cc1-c1cc(Nc2ccn(C)n2)ccc1C(=O)Nc1nnc(C#CC2CC2)s1` [Compound 166] showed an IC50 of 0.52 nM.
The molecule `COc1cnc(C(F)F)cc1-c1cc(N2CCCOC2=O)ncc1C(=O)Nc1nnc(C#CC2CC2)s1` [Compound 167] gave an IC50 of less than 0.25 nM.
Consider `COc1cnc(C(F)F)cc1-c1cc(-c2nnc(C)o2)ccc1C(=O)Nc1nnc(C2C[C@H]2c2ccc(C#N)cc2)s1` (some centres unmarked) [Compound 168], for which the concentration for half-maximal inhibition (IC50) is 0.34 nM.
`COc1cnc(C(F)F)cc1-c1cc(-c2cnccn2)ncc1C(=O)Nc1nnc(C#CC2CC2)s1` [Compound 172] came in with a 50% inhibitory concentration (IC50) of 1.5 nM.
As for `COc1cnc(C(F)F)cc1-c1cc(N2CCO[C@H](C)C2=O)ncc1C(=O)Nc1nnc(C#CC2CC2)s1` [Compound 173], 0.41 nM corresponded to half-maximal inhibition (IC50).
As for `COc1cnc(C(F)F)cc1-c1cc(N2CCO[C@@H](C)C2=O)ncc1C(=O)Nc1nnc(C#CC2CC2)s1` [Compound 174], the figure is less than 0.25 nM; as for `COc1cnc(C(F)F)cc1-c1cc(Oc2ccn(C)n2)ncc1C(=O)Nc1nnc(C#CC2CC2)s1` [Compound 175], 0.51 nM; as for `COc1cnc(C(F)F)cc1-c1cc(N2CCOCC2=O)ncc1C(=O)Nc1nnc(C#Cc2ccc(Cl)cc2)s1` [Compound 176], 23 nM.
`C#C[C@@H]1C[C@H]1c1nnc(NC(=O)c2ccc(N3CCOCC3=O)cc2-c2cc(C(F)F)ncc2OC)s1` [Compound 177] had an IC50 of 0.39 nM.
For the molecule `COc1cnc(C(F)F)cc1-c1cc(CC#N)ncc1C(=O)Nc1nnc(C#Cc2ccc(Cl)cc2)s1` [Compound 178], the half-inhibitory concentration (IC50) was less than 0.25 nM.
Molecule `COc1cnc(C(F)F)cc1-c1cc(CC(=O)N(C)C)ncc1C(=O)Nc1nc(C)c(C#CC2CC2)s1` [Compound 179] registered a half-maximal inhibitory concentration (IC50) of 1.6 nM.
Turning to `COc1cnc(C(F)F)cc1-c1cc(OCC2CC2)ncc1C(=O)Nc1nnc(C#CC2CC2)s1` [Compound 180], the IC50 is 4.6 nM.
`COc1cnc(C(F)F)cc1-c1cc(OCCOC(F)F)ncc1C(=O)Nc1nnc(C#CC2CC2)s1` [Compound 181] had a 50% inhibitory concentration (IC50) of 0.75 nM.
With `COc1cnc(C(F)F)cc1-c1cc(OC2CCN(C)C2=O)ncc1C(=O)Nc1nnc(C#CC2CC2)s1` (centres unmarked) [Compound 182] the figure was 1.2 nM; with `COc1cnc(C(F)F)cc1-c1cc(OCc2ccn(C)n2)ncc1C(=O)Nc1nnc(C#CC2CC2)s1` [Compound 183], 0.49 nM.
Consider `COc1cnc(C(F)F)cc1-c1cc(C#CC(C)(C)C#N)ncc1C(=O)Nc1nnc(C#CC2CC2)s1` [Compound 184], for which the half-inhibitory concentration (IC50) amounted to 0.45 nM.
In turn, `COc1cnc(C(F)F)cc1-c1cc(C#Cc2cnn(C)c2)ncc1C(=O)Nc1nnc(C#CC2CC2)s1` [Compound 185] showed an IC50 of less than 0.25 nM.
The molecule `COc1cnc(C(F)F)cc1-c1cc(OC[C@H]2CCCO2)ncc1C(=O)Nc1nnc(C#CC2CC2)s1` [Compound 186] had an IC50 of 0.79 nM.
In turn, `COc1cnc(C(F)F)cc1-c1cc(-c2cn(C)cn2)ncc1C(=O)Nc1nnc(C#CC2CC2)s1` [Compound 187] returned an IC50 of 0.91 nM.
Consider `COc1cnc(C(F)F)cc1-c1cc(-c2cnn(C3CCOCC3)c2)ccc1C(=O)Nc1nnc(C#CC2CC2)s1` [Compound 188], for which inhibition was half-maximal at 1.9 nM (IC50).
Regarding `COc1cnc(C(F)F)cc1-c1cc(C#CCN2CCOC[C@H]2C)ncc1C(=O)Nc1nnc(C#CC2CC2)s1` [Compound 189], the half-maximal inhibitory concentration (IC50) was less than 0.25 nM.
In turn, `C#C[C@H]1C[C@@H]1c1nnc(NC(=O)c2cnc(CC#N)cc2-c2cc(C(F)F)ncc2OC)s1` [Compound 190] gave a half-inhibitory concentration (IC50) of 5.8 nM.
As for `COc1cnc(C(F)F)cc1-c1cc(N2CCCC2=O)ncc1C(=O)Nc1ncc(C#CC2CC2)s1` [Compound 191], the figure is 15 nM.
In turn, `COc1cnc(C(F)F)cc1-c1cc(N2CCCCC2=O)ncc1C(=O)Nc1nnc(C#CC2CC2)s1` [Compound 192] yielded a half-inhibitory concentration (IC50) of 0.33 nM.
Take `COc1cnc(C(F)F)cc1-c1cc(CC#N)ccc1C(=O)Nc1ncc(C#CC2CC2)s1` [Compound 193]: half-maximal inhibition (IC50) was put at 2.5 nM.
As for `COc1cnc(C(F)F)cc1-c1cc(N2CCN(C)CC2=O)ncc1C(=O)Nc1nnc(C#CC2CC2)s1` [Compound 194], the figure is 0.61 nM; as for `COc1cnc(C(F)F)cc1-c1cc(CC(=O)N2CC(F)(F)C2)ccc1C(=O)Nc1nnc(C#CC2CC2)s1` [Compound 195], less than 0.25 nM.
As for `COc1cnc(C(F)F)cc1-c1cc(C#Cc2cn[nH]c2)ncc1C(=O)Nc1nnc(C#CC2CC2)s1` [Compound 196], the figure is less than 0.25 nM; as for `COc1cnc(C(F)F)cc1-c1cc(C#CCN2CCNC2=O)ccc1C(=O)Nc1nnc(C#CC2CC2)s1` [Compound 197], less than 0.25 nM; as for `COc1cnc(C(F)F)cc1-c1cc(CC#N)ncc1C(=O)Nc1ncc(C#CC2CC2)s1` [Compound 198], 0.53 nM.
`COc1cnc(C(F)F)cc1-c1cc(CC(=O)N(C)C)ncc1C(=O)Nc1ncc(C#CC2CC2)s1` [Compound 200] showed an IC50 of less than 0.25 nM.
As for `COc1cnc(C(F)F)cc1-c1cc(-c2cn(C)cn2)ccc1C(=O)Nc1nnc(C#CC2CC2)s1` [Compound 201], the IC50 was less than 0.25 nM.
As for `COc1cnc(C(F)F)cc1-c1cc(-c2ccc(=O)n(C)c2)ccc1C(=O)Nc1nnc(C#CC2CC2)s1` [Compound 202], the figure is 0.29 nM; as for `COc1cnc(C(F)F)cc1-c1cc(N(C)C#N)ccc1C(=O)Nc1nnc(C#CC2CC2)s1` [Compound 203], 2.9 nM; as for `CNC(=O)Cc1ccc(C(=O)Nc2ncc(C#CC3CC3)s2)c(-c2cc(C(F)F)ncc2OC)c1` [Compound 204], 0.71 nM.
With `COc1cnc(C(F)F)cc1-c1cc(CC(=O)N2CC(C)(O)C2)ccc1C(=O)Nc1ncc(C#CC2CC2)s1` [Compound 205] the figure was 0.16 nM.
With `COc1cnc(C(F)F)cc1-c1cc(CC(=O)N2CC(C)(O)C2)ccc1C(=O)Nc1nnc(C#CC2CC2)s1` [Compound 206], the half-maximal inhibitory concentration (IC50) was less than 0.25 nM.
For the molecule `O=C(Nc1ncc(C#CC2CC2)s1)c1cc(=O)n(Cc2ncco2)cc1-c1cc(C(F)F)ccc1Cl` [Compound 207], the 50% inhibitory concentration (IC50) was 2.6 nM.
Regarding `O=C(Nc1ncc(C#CC2CC2)s1)c1cc(=O)n(Cc2nccs2)cc1-c1cc(C(F)F)ccc1Cl` [Compound 208], 14 nM corresponded to half-maximal inhibition (IC50).
As for `COc1cnc(C(F)F)cc1-c1cc(N2CCCCC2=O)ccc1C(=O)Nc1ncc(C#CC2CC2)s1` [Compound 209], the IC50 worked out at 0.67 nM.
With `COc1cnc(C(F)F)cc1-c1cc(C#CC2(C(=O)N(C)C)CC2)ncc1C(=O)Nc1ncc(C#CC2CC2)s1` [Compound 210] the figure was less than 0.25 nM; with `COc1cnc(C(F)F)cc1-c1cc(C#CC2(C(=O)N(C)C)CC2)ncc1C(=O)Nc1nnc(C#CC2CC2)s1` [Compound 211], less than 0.25 nM.
`COc1cnc(C(F)F)cc1-c1cc(N2CCCCC2=O)ccc1C(=O)Nc1nnc(C#CC2CC2)s1` [Compound 212] showed an IC50 of less than 0.25 nM.
Consider `COc1cnc(C(F)F)cc1-c1cc(N2CCOCC2=O)ccc1C(=O)Nc1ncc(C#CC2CC2)s1` [Compound 213], for which the IC50 is less than 0.25 nM.
Regarding `COc1cnc(C(F)F)cc1-c1cc(CC(=O)N(C)C)ccc1C(=O)Nc1ncc(C#CC2CC2)s1` [Compound 215], inhibition was half-maximal at 0.31 nM (IC50).
For `COc1cnc(C(F)F)cc1-c1cc(N2C(=O)CCC2=O)ccc1C(=O)Nc1nnc(C#CC2CC2)s1` [Compound 216], the IC50 amounted to 1.5 nM.
As for `COc1cnc(C(F)F)cc1-c1cc(C#CCN2CCOCC2)ncc1C(=O)Nc1nnc(C#CC2CC2)s1` [Compound 218], the figure is 0.25 nM.
